Legend:
[1] = system: CK; test: PK-PD sigmoid-Emax model, PD index CK in MDG rats; assay type: in vivo, SD rats; design: Emax: unit not given beside the values
[2] = system: SOD; test: PK-PD sigmoid-Emax model, PD index SOD in MDG rats; assay type: in vivo, SD rats; design: Ke0: unit not given beside the values
[3] = system: AST; test: PK-PD sigmoid-Emax model, PD index AST in MDG rats; assay type: in vivo, SD rats; design: unit not given beside the values
[4] = system: LDH; test: PK-PD sigmoid-Emax model, PD index LDH in MDG rats
Source text: Subsequently, we incorporated the PK and PD data to conduct PK-PD modeling through DAS.
Therefore, PK-PD correlation analysis was used in this study, linking dynamic concentration–time processes and effect–time profile relationships [20, 21, 22]. […] The model adopted in this study is the S-Emax model. In the equation, γ means the shape factor in the formula, affecting the slope and determining the steepness of the curve. Emax can provide the maximum response intensity, and ED50 is for evaluating the safety of the drug, which is understood as the amount of the drug that causes 50% of the maximum response intensity.
Plasma creatine kinase (CK), hydroxybutyrate dehydrogenase (HBDH), lactate dehydrogenase (LDH), and superoxide dismutase (SOD) activity was determined using an automatic biochemical analyzer.
The activity of the CK, HBDH, LDH, and SOD of plasma samples collected at different time points was determined using an automatic biochemical analyzer for PD index evaluation. […] Two compartmental methods were used, employing the drug and statistics, which was supplied by the Chinese Pharmacological Society. Then, the efficacy indicators were fitted in the PK-PD model.

[5] = system: HBDH; test: PK-PD sigmoid-Emax model, PD index HBDH in MDG rats; assay type: in vivo, SD rats; design: unit not given beside the values

rhodiosin
Emax [1]: 2289.293 | Ke0 [1]: 2.998 | Emax [2]: 72.933 | Ke0 [2]: 0.055 | Emax [3]: 1084.02 | Ke0 [3]: 2.998 | Emax [4]: 484.31 | Ke0 [4]: 2.998 | Emax [5]: 4335.008 | Ke0 [5]: 0.469

— publication PMC11124525, “Pharmacokinetic–Pharmacodynamic Correlation Analysis of Rhodiola crenulata in Rats with Myocardial Ischemia” (Pharmaceuticals, 2024)
